Laboratory results as given in PMC6203393, “Identification of novel antimicrobial peptide from Asian sea bass (Lates calcarifer) by in silico and activity characterization” (PLoS ONE, 2018).
Like-named read-outs stand apart in the source and are kept apart here.

What was measured:
[1] = test system: Enterococcus faecalis (ATCC:6057); test: MIC at different pH values; assay type: cell-based; conditions: 37°C for 18 hours
Method: The antibacterial activity of both peptides were assessed against Enterococcus faecalis, a bacteria resistance to alkaline environments (ATCC:6057), at different pH values (pH range: 7.4, 8.5, 9.5, or 10.5). The bacteria were cultured in the BHI medium adjusted to varying pH values (pH range: 7.4, 8.5, 9.5, and 10.5). After incubation at 37°C for 18 hours, the MIC values were determined.

[2] = test system: Escherichia coli (ATCC 25922); assay type: cell-based; conditions: for increase of MIC value: E.coli
Method: (§1) Briefly, a series of two-fold dilutions of each peptide(300, 150, 75, 37.5, 18.75, 9.37, 4.68 and 2.34μg/ml) was created with 0.01% acetic acid and 0.2% BSA (bovine serum albumin) and then 50 μl of each peptide dilution was added to each well of polystyrene flat bottom 96-well microplate (Sigma-Aldrich, Germany). Microbial suspension was diluted with BHI medium or RPMI medium to provide density of 1×10^6 cell/ml and 50 μl of diluted microbial suspension was added to wells containing 50 μl of peptide solution, providing a final concentration of 5×10^5 cell/ml and incubated for 18 hours at 37 °C. The sterility control well contained 100 μl of BHI (or RPMI), while the growth control well contained 100 μl of microbial suspension (5×10^5 cell/ml). The MIC values was defined as the lowest peptide concentration that prevented visible growth of the bacteria. Three independent tests were performed for each peptide concentration.
In the next step, the pH and salt concentration effect on MIC of AMPs were assayed. To evaluate the effect of cations on the antibacterial activity of AMPs, bacteria were cultured in the BHI medium containing increased concentrations of monovalent or divalent salt including NaCl (62,125,250 and 500 mM), MgCl2 (1,5, 10 and 30 mM), respectively.

[3] = test system: clinical A. baumannii isolate; test: Time-kill analysis; assay type: cell-based, Acinetobacter baumannii; conditions: 5×10^5 cell/ml in BHI, 37°C, bactericidal = ≥3-log10 reduction, mean of two independent experiments
Method: Time-Kill assay was performed to investigate bactericidal activity of both peptides against antibiotic resistant bacteria including S. aureus (MRSA), and clinical A. baumannii isolate. […] Colony count was performed after incubation at 37°C for 0, 2, 4, 8, 12 and 24 h by plating of 10-fold dilutions on LB agar. […] The lower limit of detection for time-kill assays was 2 log10 CFU/ml.

E. faecalis [4] = test: Antiadhesive assay, pH effect (crystal violet); assay type: cell-based, Enterococcus faecalis; conditions: peptide at 1/32×MIC, BHI pH 7.4, 8.5, 9.5, 10.5, 1 hour, 595 nm
E.coli = test: Binding affinity to bacteria, cell-based fluorometric ELISA, salt effect; set-up: species or system Escherichia coli; conditions: in the presence of 10 mM MgCl2; 5-FAM-labeled peptide 2.5μg/ml, 2 hours at 37°C; fluorescence 490/560 nm
Method: Antimicrobial peptides bind to the bacterial cell wall through an electrostatic interaction between the positive charge of AMPs with the negative charge of the bacterial cell wall. […] To determine optimal binding conditions, different concentrations of the bacteria (12.5×10^7, 25×10^7, 5×10^8, 1×10^9 cell/ml) and 5-FAM-labeled peptide (1.25, 2.5, 5, and 10 μg/ml) were prepared. Bacterial suspension from each bacterial concentration was added to 4 wells of Maxisorp 96-well microplates (each well 100 μl) and incubated for 3 hours at 37°C without agitation. The planktonic cells were carefully discarded by pipetting and the adherent cells were washed three times with PBS buffer (pH 7.4). Bacteria were fixed with 100 μl of 4% paraformaldehyde and incubated for 0.5 hours at 37°C. The paraformaldehyde was removed and the wells were washed three times with PBS buffer (pH 7.4). The wells were air-dried and fixed cells were confirmed with an inverted microscope. […] After three washing steps with PBS-T buffer, the fluorescence intensity was measured using a fluorescence microplate reader (BioTek Synergy 4, USA) at 490/560 nm (Ex/Em). […] Under the optimized conditions, the binding affinity of both peptides to bacteria was assessed. […]

[5] = RP HPLC retention time of peptides; assay type: physicochemical; conditions: Inertsil ODS-SP 4.6*250 mm 5μm, linear 0–100% acetonitrile with 0.1% trifluoroacetic acid, 1ml/minute, 30 minutes, highest peak in 214 nm, used as hydrophobicity measure
Method: The retention time of the peptides were calculated by RP HPLC using an analytical SHIMADZU Inertsil ODS-SP (4.6*250 mm* 5μm) column. A linear gradient of 0–100% acetonitrile supplemented with 0.1% trifluoroacetic acid was used to elute peptides at a flow rate 1ml/minute for 30 minutes. The highest peak in 214 nm was considered as the retention time for each peptide.

[6] = test system: Acinetobacterbaumannii(Clinical isolate); assay type: cell-based, Acinetobacter baumannii; conditions: Brain heart infusion; 5×10^5 cell/ml; 18 hours at 37 °C; three independent tests
Method: as §1

E. faecalis [7] = test: Antibiofilm assay, pH effect (crystal violet); assay type: cell-based, Enterococcus faecalis; conditions: peptide at 1/32×MIC, BHI pH 7.4, 8.5, 9.5, 10.5, 24 hours, 595 nm
[8] = test system: Staphylococcus aureus(MRSA); assay type: cell-based; conditions: Brain heart infusion; 5×10^5 cell/ml; 18 hours at 37 °C; three independent tests
Method: as §1

[9] = test system: Pseudomonas aeruginosa (ATCC10662); assay type: cell-based; conditions: Brain heart infusion; 5×10^5 cell/ml; 18 hours at 37 °C; three independent tests
Method: as §1

[10] = test system: Candida albicans (clinical isolate); assay type: cell-based; conditions: RPMI medium; 5×10^5 cell/ml; 18 hours at 37 °C; three independent tests
Method: as §1

[11] = test system: Staphylococcus aureus(ATCC 25923); assay type: cell-based; conditions: Brain heart infusion; 5×10^5 cell/ml; 18 hours at 37 °C; three independent tests
Method: as §1

[12] = test system: Candida tropicalis(clinical isolate); assay type: cell-based; conditions: RPMI medium; 5×10^5 cell/ml; 18 hours at 37 °C; three independent tests
Method: as §1

[13] = test system: Candida glabrata(clinical isolate); assay type: cell-based; conditions: RPMI medium; 5×10^5 cell/ml; 18 hours at 37 °C; three independent tests
Method: as §1

[14] = test system: Staphylococcus epidermidis (ATCC 1435); assay type: cell-based; conditions: Brain heart infusion; 5×10^5 cell/ml; 18 hours at 37 °C; three independent tests
Method: as §1

FLRSLLRGAKAIYRGARAGWRG [Dicentracin-like, 22-amino-acid mature AMP from Asian sea bass; synthesized with N-terminal 5-FAM and amidated C-terminus]
MIC(fold increase) ([1]; BHI medium pH 7.4): 1 fold | MIC(fold increase) ([1]; BHI medium pH 8.5): 1 fold | MIC(fold increase) ([1]; BHI medium pH 8.5, listed as dicentracin-like): no reduction | MIC(fold increase) ([1]; BHI medium pH 9.5): 2 fold | MIC(fold increase) ([1]; BHI medium pH 10.5): 4 fold | Activity (MIC) against E.coli ([2]; BHI medium with MgCl2 1 mM): 4.68 µg/mL | Activity (MIC) against E.coli ([2]; BHI medium with MgCl2 5 mM): 18.75 µg/mL | Activity (MIC) against E.coli ([2]; BHI medium with MgCl2 10 mM): 18.75 µg/mL | Activity (MIC) against E.coli ([2]; BHI medium with MgCl2 30 mM): 75 µg/mL | Activity (MIC) against E.coli ([2]; BHI medium with NaCl 62 mM): 4.68 µg/mL | Activity (MIC) against E.coli ([2]; BHI medium with NaCl 125 mM): 4.68 µg/mL | Activity (MIC) against E.coli ([2]; BHI medium with NaCl 250 mM): 6.05 µg/mL | Activity (MIC) against E.coli ([2]; BHI medium with NaCl 500 mM): 9.37 µg/mL | minimum inhibitory concentration (MIC) ([2]; Brain heart infusion, 5×10^5 cell/ml, 18 hours at 37 °C, lowest concentration preventing visible growth, three independent tests): 4.68 µg/mL | increase of MIC value ([2]; in the presence of 5 mM and 10 mM MgCl2, MIC (MgCl2) /MIC): 4 fold | increase of MIC value ([2]; in the presence of 30 mM MgCl2): 16 fold | increase of MIC value ([2]; in the presence of 500 mM NaCl): 2 fold | Activity (MIC) against E.coli ([2]; Physiological salt concentrations (150 mM NaCl 3 mM CaCl2 2 mM MgCl2)): 4.68 µg/mL | time after which bactericidal effect was observed ([3]; 1XMIC): 4 h | time after which bactericidal effect was observed ([3]; 2XMIC): 2 h | antiadhesive activity (bacterial adhesion relative to corresponding control) (E. faecalis [4]): significantly decrease the bacterial adhesion and biofilm formation at pH values from 7.4 to 9.5 | reduction in affinity binding to bacteria (E.coli): 1.6 fold | retention time (main peak) [5]: 20.518 min | minimum inhibitory concentration (MIC) [6]: 18.75 µg/mL | antibiofilm activity (biofilm formation relative to corresponding control) (E. faecalis [7]): significantly decrease the bacterial adhesion and biofilm formation at pH values from 7.4 to 9.5 | minimum inhibitory concentration (MIC) [8]: 4.68 µg/mL | minimum inhibitory concentration (MIC) [9]: 37.5 µg/mL | minimum inhibitory concentration (MIC) [10]: 4.68 to 9.37 µg/mL | minimum inhibitory concentration (MIC) [11]: 4.68 µg/mL | minimum inhibitory concentration (MIC) [12]: 4.68 to 9.37 µg/mL | minimum inhibitory concentration (MIC) [13]: >150 µg/mL | minimum inhibitory concentration (MIC) [14]: 1.17 µg/mL
